Data reported in patent US8242151B2, “Tricyclic compounds” (Kyowa Hakko Kirin Co., Ltd., priority 2007, dated 2012).
pEC50: −log10 of the molar value.

Key:
[1] = target: T1, GAL4-PPARγ chimeric nuclear receptor (human PPARγ ligand binding region) (Homo sapiens, UniProt P37231); assay: Transactivation assay of PPARγ by transient gene transfer (GAL4-PPARγ luciferase reporter); format: cell-based; conditions: HEK293EBNA cells, 24 hr; concentration showing 50% of efficacy; activity relative to pioglitazone 10 μmol/L = 100%
T1 construct: expressed in transfected cells; host or cells: HEK293EBNA cells
T1 sequence (P37231 174-475 isoform P37231-2): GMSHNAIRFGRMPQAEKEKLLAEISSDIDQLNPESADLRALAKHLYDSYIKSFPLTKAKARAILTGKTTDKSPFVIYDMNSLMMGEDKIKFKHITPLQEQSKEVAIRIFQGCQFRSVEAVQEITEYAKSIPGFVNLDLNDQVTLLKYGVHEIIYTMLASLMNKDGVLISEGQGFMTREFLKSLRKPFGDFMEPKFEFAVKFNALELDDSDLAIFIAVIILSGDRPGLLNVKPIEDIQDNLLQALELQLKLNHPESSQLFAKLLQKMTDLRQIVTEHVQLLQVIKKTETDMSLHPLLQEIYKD
Procedure: The agonist activity of compound (I) to PPARγ was determined by a transactivation assay method using a chimeric nuclear receptor of a DNA binding region of a yeast transcription factor GAL4 and a PPARγ ligand binding region. Specifically, the PPARγ agonist activity of compound (I) was evaluated by the following method based on the method of Lehmann et al. (J Biol. Chem., 1995, vol. 270, page 12953).
HEK293EBNA cells cultured in Dulbecco's Modified Eagle medium (Invitrogen) containing 10 v/v % fetal calf serum (Invitrogen) were used. 30 mL of the above-mentioned cells (density: 1×10^5 cells/mL) were inoculated in a […] culture dish (Iwaki Glass), and cultured overnight. Using SuperFect Transfection Reagent (QIAGEN), a plasmid expressing a GAL4-PPARγ chimeric nuclear receptor fusing 174-475 amino acids, which are human PPARγ ligand binding region, and 1-147 amino acids, which are GAL4 DNA binding region, and a reporter plasmid expressing a GAL4 responsive luciferase were transiently introduced into the cells at a proportion of 4:1. After 5 hr from gene introduction, the cells were detached from the culture dish, and the detached cells (density: 2×10^4 cells/mL) were inoculated by 100 μL in each well of a 96 well white plate (SUMITOMO BAKELITE), and cultured overnight. The medium was removed, compound (I) diluted in various concentrations with serum-free Dulbecco's Modified Eagle medium was added by 100 μL, and the mixture was reacted under a 5% carbon dioxide gas stream (5% CO2) at 37° C. for 24 hr. On the other hand, as a positive control, 10 μmol/L of pioglitazone (100 μL) was added, and the mixture was reacted under a 5% carbon dioxide gas stream (5% CO2) at 37° C. for 24 hr. As a substrate of luciferase, 100 μL of Steady-Glo (Promega) was added to each well and the mixture was thoroughly stirred. Immediately thereafter, the chemical luminescence due to luciferase was measured using TopCount NTX (Packard).
The agonist activity (activity rate (%)) of compound (I) to PPARγ was calculated according to the following formula, as a relative activity when the agonist activity on addition of pioglitazone (10 μmol/L) was 100%.

[2] = system: spontaneously hypertensive rats (SHR); assay: Antihypertensive action by telemetry method; format: in vivo, rat; conditions: oral once a day for 4 days, 24 hr averages
Description: A telemetry transmitter was indwelled in the abdominal artery of spontaneously hypertensive rats (SHR), and the blood pressure and heart rate were monitored. The rats were acclimated and reared for 4 weeks or more, and only the rats with hypertension were used for the test. Before drug administration, the rats were grouped such that the blood pressure and heart rate of each rat would be of the same levels between the groups. A solvent (0.5% methylcellulose solution) and a test compound were repeatedly administered orally once a day for 4 days. The average systolic blood pressure for 24 hr, average diastolic blood pressure for 24 hr and average heart rate for 24 hr were calculated on each administration day.

[3] = system: spontaneously hypertensive rats (SHR); assay: Antihypertensive action by tail cuff method; format: in vivo, rat; conditions: oral once a day for 7 days, about 4 to 9 hr after final administration
Procedure: 18- to 22-week-old spontaneously hypertensive rats (SHR) were used.
Before drug administration, the body weight, blood pressure and heart rate of each rat were measured, and the rats were grouped such that these values are almost the same between groups. A solvent (0.5% methylcellulose solution) and a test compound were repeatedly administered orally once a day for 7 days. At about 4 to 9 hr after the final administration, systolic blood pressure and heart rate were non-invasively measured according to the following.
The rats were placed in a cylindrical restrainer, heated to 37° C., and blood pressure and heart rate were measured under resting state using a Tail Cuff Method. For the measurement, a non-invasive blood pressure measurement apparatus (PS-600, Riken Kaihatsu, Tokyo) was used. The blood pressure and heart rate of each rat was measured 5 times, and the average was taken as the value of each rat.

SMILES | pEC50 [1] | antihypertensive action (blood pressure, telemetry) [2] | antihypertensive action (systolic blood pressure, tail cuff) [3]
C/C(=C1/c2ccccc2CCc2cc(Cn3c(C4CC4)nc4c(Cl)ccnc43)ccc21)c1noc(=O)[nH]1 [Compound 95, (E)-2-(7-chloro-2-cyclopropyl-3H-imidazo[4,5-b]pyridin-3-yl)methyl-5-[1-(5-oxo-4,5-dihydro-1,2,4-oxadiazol-3-yl)ethylidene]-10,11-dihydro-5H-dibenzo[a,d]cycloheptene] | 6.28 | antihypertensive action | antihypertensive action
CCc1nc2c(C)cc(C)nc2n1Cc1ccc2c(c1)CCc1ccccc1/C2=C\c1noc(=O)[nH]1 [Compound 29, (E)-2-(2-ethyl-5,7-dimethyl-3H-imidazo[4,5-b]pyridin-3-yl)methyl-5-(5-oxo-4,5-dihydro-1,2,4-oxadiazol-3-yl)methylene-10,11-dihydro-5H-dibenzo[a,d]cycloheptene] | 6.49 | antihypertensive action | antihypertensive action
C/C(=C1\c2ccc(Cn3c(C4CC4)nc4c(Cl)ccnc43)cc2COc2ccccc21)c1noc(=O)[nH]1 [Compound 139, (Z)-8-(7-chloro-2-cyclopropyl-3H-imidazo[4,5-b]pyridin-3-yl)methyl-11-[1-(5-oxo-4,5-dihydro-1,2,4-oxadiazol-3-yl)ethylidene]-6,11-dihydrodibenzo[b,e]oxepine] |  |  | antihypertensive action
CCc1nc2c(C)ccnc2n1Cc1ccc2c(c1)CCc1ccccc1/C2=C(/C)c1nnn[nH]1 [Compound 47, (E)-2-(2-ethyl-7-methyl-3H-imidazo[4,5-b]pyridin-3-yl)methyl-5-[1-(1H-tetrazol-5-yl)ethylidene]-10,11-dihydro-5H-dibenzo[a,d]cycloheptene] | 5.71 | antihypertensive action | antihypertensive action
CCc1nc2c(C)cc(C)nc2n1Cc1ccc2c(c1)CCc1ccccc1N2Cc1nnn[nH]1 [Compound S13, 2-(2-ethyl-5,7-dimethyl-3H-imidazo[4,5-b]pyridin-3-yl)methyl-5-(1H-tetrazol-5-yl)methyl-10,11-dihydro-5H-dibenzo[b,f]azepine] | 5.34 | antihypertensive action | antihypertensive action
CCc1nc2c(C)ccnc2n1Cc1ccc2c(c1)CCc1ccccc1/C2=C(/C)c1noc(=O)[nH]1 [Compound 42, (E)-2-(2-ethyl-7-methyl-3H-imidazo[4,5-b]pyridin-3-yl)methyl-5-[1-(5-oxo-4,5-dihydro-1,2,4-oxadiazol-3-yl)ethylidene]-10,11-dihydro-5H-dibenzo[a,d]cycloheptene] | 5.99 | antihypertensive action | antihypertensive action
CCc1nc2c(Cl)cc(C)nc2n1Cc1ccc2c(c1)CCc1ccccc1/C2=C(/C)c1noc(=O)[nH]1 [Compound 44, (E)-2-(7-chloro-2-ethyl-5-methyl-3H-imidazo[4,5-b]pyridin-3-yl)methyl-5-[1-(5-oxo-4,5-dihydro-1,2,4-oxadiazol-3-yl)ethylidene]-10,11-dihydro-5H-dibenzo[a,d]cycloheptene] | 6.11 | antihypertensive action | antihypertensive action
CCc1nc2c(Cl)ccnc2n1Cc1ccc2c(c1)COc1ccccc1/C2=C(/C)c1noc(=O)[nH]1 [Compound 137, (Z)-8-(7-chloro-2-ethyl-3H-imidazo[4,5-b]pyridin-3-yl)methyl-11-[1-(5-oxo-4,5-dihydro-1,2,4-oxadiazol-3-yl)ethylidene]-6,11-dihydrodibenzo[b,e]oxepine] | 5.74 | antihypertensive action | antihypertensive action
CCc1nc2c(C)cc(C)nc2n1Cc1ccc2c(c1)COc1ccccc1/C2=C\c1noc(=O)[nH]1 [Compound 118, (Z)-8-(2-ethyl-5,7-dimethyl-3H-imidazo[4,5-b]pyridin-3-yl)methyl-11-(5-oxo-4,5-dihydro-1,2,4-oxadiazol-3-yl)methylene-6,11-dihydrodibenzo[b,e]oxepine] | 6.46 | antihypertensive action | 
CCOc1nc2c(Cl)ccnc2n1Cc1ccc2c(c1)COc1ccccc1/C2=C(/C)c1noc(=O)[nH]1 [Compound 138, (Z)-8-(7-chloro-2-ethoxy-3H-imidazo[4,5-b]pyridin-3-yl)methyl-11-[1-(5-oxo-4,5-dihydro-1,2,4-oxadiazol-3-yl)ethylidene]-6,11-dihydrodibenzo[b,e]oxepine] | 6.26 | antihypertensive action | 
CCc1nc2c(C)ccnc2n1Cc1ccc2c(c1)CCc1ccccc1N2C(C)c1nnn[nH]1 (stereo not drawn) [Compound 26, 2-(2-ethyl-7-methyl-3H-imidazo[4,5-b]pyridin-3-yl)methyl-5-[1-(1H-tetrazol-5-yl)ethyl]-10,11-dihydro-5H-dibenzo[b,f]azepine] |  |  | antihypertensive action
